The test system of series [1] is Marchigian Sardinian alcohol-preferring (msP) rats. In words: Acute voluntary ethanol intake, alcohol access restricted to 2 hours/day. The format is in vivo, rat. As for the experimental part:
At the beginning of the experiments, msP rats were allowed free choice between water and 10% (v/v) alcohol 24 h/day for at least 15 days. The fluids were offered in graduated drinking tubes equipped with metallic drinking spouts. The position (to the right or left) of alcohol and water drinking tubes was changed daily to avoid the development of side preference. Water and food were available ad libitum, while alcohol access was either restricted to 2 hours/day (Examples 1 and 2) or was available 24 hours/day (Examples 3 and 4). Alcohol, water and food intakes were measured.
. After acquisition of a stable baseline of ethanol intake (6-8 g/kg bw; daily), alcohol access was restricted to 2 hours a day at the beginning of the dark phase. Water and food were freely available.
[…]. Before starting the treatment, rats were trained to gavage administration procedures for three days, during which they received vehicle (distilled water).
Treatments were carried out at intervals of at least three days. […] Drinking experiments were conducted right at the beginning of the dark cycle. Alcohol, water and food intakes were monitored at 30, 60, 90 and 120 minutes after ethanol was made available.
The msP rats (n=8) were prepared for the study as described in Example 1. After acquisition of a stable baseline of ethanol intake, alcohol access was restricted to 2 hours a day at the beginning of the dark phase. Water and food were freely available. […]. The experiment was conducted using a within subject counterbalanced Latine square design where each animal received all drug doses.
These experiments were conducted at the beginning of the dark cycle and alcohol, and water and food intakes were monitored at 30, 60, 90 and 120 minutes after ethanol was made available.

The subject of series [2] is Wistar rats. The series can be described thus: FR5 cocaine self-administration. The format is in vivo, rat. The following applies: pioglitazone both 10.0 and 30.0 mg/kg OS 12 hours and 1 hour before session. The protocol: […]. Drug or vehicle solution was infused at a volume of 0.1 ml over 4 s.
Male Wistar rats weighing between 180 and 200 g at the time of arrival in the lab were used. The rats were housed in groups of three in a humidity- and temperature-controlled (22° C.) vivarium on a 12 h: 12 h reverse light/dark cycle (on, 17:00; off, 05:00) with ad libitum access to food and water. One week after arrival, rats were subjected to surgery, and a silastic catheter was implanted into the right jugular vein.
Cocaine self-administration training continued until a stable baseline of responding was reached (less than 10% variation for 3 consecutive days calculated for each single rat). At this point, drug testing begun.
. […] A 3-day interval was allowed between drug testing. During these intervals, cocaine self-administration was continued to re-establish baseline lever responses.

The test system of another series is CD mice. The series can be described thus: Tail-flick test, morphine-induced analgesic tolerance. The format is in vivo, mouse. The following applies: pioglitazone alone 10 or 30 mg/kg. As for the experimental part:
All procedures were conducted in adherence to the European Community Council Directive for Care and Use of Laboratory Animals.
Mice were divided into 6 groups. Group 1 (n=8) received drug vehicles (veh/veh). […] Animals were treated twice daily (between 9:00 and 10:00 a.m. and 9:00 and 10:00 p.m.).
Morphine hydrochloride was purchased from Salars (Milano, Italy). Morphine (30 mg/kg) was dissolved in NaCl […] and was injected intraperitoneally (IP) twice a day at the indicated doses in a volume of 0.2 ml per mice. […] It was dissolved in distilled water and was administered per o.s. at the doses of 10 mg/kg and 30 mg/kg in a volume of 0.6 ml per mice.
Two different tests were used to monitor analgesic responses. The tail-flick test was performed 45 min after the morning injection of morphine, and the tail-immersion test was performed 45 min after the evening injection of morphine.
For the tail-flick test, each mouse was gently restrained in a soft tissue pocket, and the tail (1 cm from the tip) was exposed to a hot light beam. Latency for tail-flick was measured with a 6 seconds cut-off time. For the tail-immersion test, each mouse was restrained in a soft tissue pocket, and the distal half of the tail dipped into a water bath set at 52 C°. Latency for removing the tail from the hot water was measured with a 10 seconds cut-off time.
Background: In hot-plate and tail-flick tests a longer latency is read as antinociception.

The conditions of series [3]: Young, Buckle et al. 1998; Breidert et al. 2002; cited from earlier work.
Series [4] deals with msP rats. The series can be described thus: Yohimbine-induced (stress) reinstatement of alcohol seeking.
Description: Stress-induced reinstatement of alcohol-seeking experimental procedures consisted of three phases: (1) training phase; (2) extinction phase; and (3) reinstatement phase, as described below.
For the training phase, after completion of the fading procedure, msP rats were trained to self-administer 10% (v/v) alcohol for 15 days in 30-min daily sessions under a FR1 schedule of reinforcement. During the infusion, a stimulus house light was turned on for 5 s (time out; TO).
For the extinction phase, after the last alcohol self-administration session, animals were subjected to 30-min extinction sessions for 15 consecutive days.
The day after the last extinction session, rats were subjected to the reinstatement test.
Animals received all drug treatments according to a counterbalance Latin square design. A 3-day interval, during which animals were subjected to extinction sessions, was allowed between drug tests.
Another series has as its system Long Evans rats. The series can be described thus: Yohimbine-induced reinstatement of nicotine seeking. The format is in vivo, rat. The following applies: pioglitazone all doses tested (5.0, 10.0 and 30.0 mg/kg), 12 and 1 hour before test. As for the experimental part:
Stress and anxiety are major factors in resuming nicotine use in former abstinent users. […] Reinstatement experiments and relative drug treatments were performed every third day. Between reinstatements, extinction baseline was re-established.

In series [5] the test system is msP rats. The series can be described thus: Cue-induced reinstatement of alcohol seeking. The following applies: pioglitazone 10.0, 30.0 mg/kg at 12 hours and 1 hour before test. The format is in vivo, rat.
Protocol: Cue-induced reinstatement of alcohol-seeking behaviour experimental procedures consisted of three phases: (1) conditioning phase; (2) extinction phase; and (3) reinstatement phase, as described below.
For the conditioning phase, at the completion of the fading procedure (see above), in 30 min daily sessions, animals were trained to discriminate between 10% alcohol and water. Beginning with self-administration training at the 10% alcohol concentration, discriminative stimuli (SD) predictive of alcohol versus water availability were presented during the alcohol and water self-administration sessions, respectively. The discriminative stimulus for alcohol consisted of the odour of an orange extract (S^+) whereas water availability (i.e. no reward) was signalled by an anise extract (S^−). The olfactory stimuli were generated by depositing six to eight drops of the respective extract into the bedding of the operant chamber. In addition, each lever-press resulting in delivery of alcohol was paired with illumination of the chamber's house light for 5 sec (CS^+). The corresponding cue during water sessions was a 5 second tone (70 dB) (CS). Concurrently with the presentation of these stimuli, a 5 sec. time-out period was in effect, during which responses were recorded but not reinforced. The olfactory stimuli serving as S^+ or S^− for alcohol availability were introduced one minute before extension of the levers and remained present throughout the 30-min. sessions. The bedding of the chamber was changed and bedding trays were cleaned between sessions. During the first three days of the conditioning phase, the rats were given alcohol sessions only. Subsequently, alcohol and water sessions were conducted in random order across training days, with the constraint that all rats received a total of 10 alcohol and 10 water sessions.
For the extinction phase, after the last conditioning day, rats were subjected to 30-min extinction sessions for 15 consecutive days. During this phase, sessions began by extension of the levers without presentation of the SD. […]
Another series deals with heavy tobacco smokers. In words: Pilot clinical study in heavy tobacco smokers. The format is in vivo, human. The protocol: Data were recorded for two months, during which patients were seen by the physician every other week. Patients were instructed to record in a personal logbook the number of cigarettes per day and the time of the day smoking occurred. At the end of the study, the logbooks were returned to the clinical personnel who analyzed the data. […] During the first month of treatment, every two weeks, ACTH and cortisol levels were also monitored to evaluate HPA activation before and during treatment.

The subject of series [6] is Wistar rats. The series can be described thus: Alcohol withdrawal score after six days of intermittent alcohol intoxication. The format is in vivo, rat. As for the experimental part:
Male Wistar rats were subjected to a six days of intermittent alcohol intoxication. […] The first ethanol dose was given at the beginning of the dark phase. The other 3 daily doses were administered at intervals of 3 hours. Rats were not injected during the light phase of the light/dark cycle. […] Behavioural signs of withdrawal included: (1) presence of the ventromedial distal flexion response; (2) tail stiffness/rigidity; and (3) tremors (Schulteis et al. 1995). […] Schulteis, et al., 1995). All signs were cumulated to yield an overall withdrawal severity score.

Setting [7] is: pioglitazone 30 mg/kg OS at 12 hours and 1 hour before access to ethanol.
The mark [8] stands for this setting: pioglitazone 10 and 30 mg/kg, p<0.01.

Structures are written as SMILES. Entries after “also recorded” stand apart in the source; their conditions may differ.

Turning to `CCc1ccc(CCOc2ccc(CC3SC(=O)NC3=O)cc2)nc1.Cl` (stereo not drawn) [pioglitazone], in series [1] (setting [7]), the “ethanol consumption at 30, 60, or 90 minutes” value was “not at 30, 60, or 90 minutes” and the “ethanol consumption at 2 hours” value is reported as “significantly reduced”. For the same molecule, the “ethanol intake, overall treatment effect (ANOVA)” value in series [1] (pioglitazone 10.0, 30.0 mg/kg OS) is recorded as “absence of a significant treatment effect”. In addition, the cocaine self-administration entry with Wistar rats [2] is on record as “significant (p<0.01) reduction”. Also, the “analgesic responses (tail-flick)” value in the series on CD mice is reported as “did not differ from controls”. The “crossing of the blood brain barrier compared with rosiglitazone” value in series [3] is recorded as “crosses the blood brain barrier more easily”. The “yohimbine-induced reinstatement of alcohol seeking (active lever)” value with msP rats [4] (pioglitazone 10 mg/kg OS at 12 hours and 1 hour before test) was “clear trend (p=0.07) to an inhibition”. The “yohimbine-induced reinstatement of alcohol seeking (active lever)” value with msP rats [4] (pioglitazone 30 mg/kg OS at 12 hours and 1 hour before test, p<0.01) is “significant inhibition”. Besides, the “effect of yohimbine on reinstatement of responding, overall” value with msP rats [4] (pre-treatment with pioglitazone 10.0 and 30.0 mg/kg) is on record as “significantly reduced; also recorded: markedly reduced”. The “yohimbine-induced reinstatement of nicotine seeking” value in the series on Long Evans rats was “prevented; also recorded: significantly (p<0.001) decreased”. Also, the “cue-induced (conditioned) reinstatement of alcohol-seeking” value in the series on msP rats [5] was “not significantly modified; also recorded: lack of effect”. Further, the “weekly smoked cigarettes, pioglitazone versus varenicline (post hoc)” value in the series with heavy tobacco smokers (human, in vivo) is recorded as “no significant differences”. In addition, the “craving score (visual analogic craving scale)” value with heavy tobacco smokers (over treatment) is reported as “highest reduction”. Moreover, in the series with heavy tobacco smokers (over treatment weeks), the STAI anxiety score result is “significantly reduced”. Besides, the “weekly smoked cigarettes compared to bupropione (post hoc)” value in the series with heavy tobacco smokers (p<0.05) was “significant difference”. Moreover, the “subjects reaching complete abstinence” value in the series with heavy tobacco smokers (pioglitazone 4 patients, varenicline 3 patients) is recorded as “One”. The alcohol withdrawal signs result in the series with Wistar rats [6] (pioglitazone 10 mg/kg and 30 mg/kg, 12 hours and 1 hour before rating) is listed as “significantly reduced”. For the same molecule, in the series with Wistar rats [6] (setting [8]), the tail rigidity result was “highly significant effect”, the tremors entry is on record as “highly significant effect” and the ventromedial limb retraction entry is given as “highly significant effect”. In addition, the “rats showing seizures during withdrawal” value in the series on Wistar rats [6] (pioglitazone treated rats (two out of 7 vehicle animals showed convulsion)) was “none of the 12 rats”.
